Source: ChEMBL document CHEMBL3351703, “Probing the selective antitumor activity of 22-oxo-26-selenocyanocholestane derivatives” (Eur J Med Chem, 2014)
The source made the active and inactive calls. No cut-off for these calls is given here.

Key:
HeLa [1] = test: Cell cycle arrest in human HeLa cells assessed as accumulation at sub-G1 phase at IC50 after 24 hrs by propidium iodide staining-based flow cytometric analysis relative to control; assay type: functional
[2] = (§1) Antiproliferative activity against human ViBo cells after 24 hrs by MTT assay; assay type: functional, cell-based
ViBo [3] = test: as §1; assay type: functional, cell-based
PBMC = test: Immunosuppressive activity in PHA-stumulated CSFE labeled human enriched PBMC assessed as cell growth at IC50 after 72 hrs by flow cytometric analysis (reference value: 65.90%); assay type: functional
[4] = Cell cycle arrest in human ViBo cells assessed as accumulation at G1 phase at IC50 after 24 hrs by propidium iodide staining-based flow cytometric analysis relative to control; assay type: functional
HeLa [5] = test: Induction of apoptosis in human HeLa cells assessed as effect on cell morphology; assay type: functional, cell-based
[6] = Cytotoxicity against human ViBo cells at IC50 after 24 hrs by LDH release assay relative to control; assay type: functional
Ca-Ski [7] = test: Induction of apoptosis in human CaSki cells assessed as effect on cell morphology; assay type: functional, cell-based
HeLa [8] = test: Cytotoxicity against human HeLa cells at IC50 after 24 hrs by LDH release assay relative to control; assay type: functional
HeLa [9] = test: Cell cycle arrest in human HeLa cells assessed as accumulation at G1 phase at IC50 after 24 hrs by propidium iodide staining-based flow cytometric analysis (reference value: 62.51 +/- 3.76%); assay type: functional
ViBo [10] = test: Induction of apoptosis in human ViBo cells assessed as effect on cell morphology; assay type: functional, cell-based
HeLa [11] = test: Induction of apoptosis in human HeLa cells assessed as chromatin condensation by DAPI staining-based fluorescence microscopic analysis; assay type: functional, cell-based
[12] = Cell cycle arrest in human CaSki cells assessed as accumulation at G2/M phase at IC50 after 24 hrs by propidium iodide staining-based flow cytometric analysis relative to control; assay type: functional; conditions: Ca-Ski
[13] = Cytotoxicity against human CaSki cells at IC50 after 24 hrs by LDH release assay relative to control; assay type: functional, Ca-Ski
HeLa [14] = test: Induction of apoptosis in human HeLa cells assessed as DNA fragmentation at 95 to 97 uM after 24 hrs by TUNEL assay; assay type: functional, cell-based
[15] = Cell cycle arrest in human ViBo cells assessed as accumulation at G2/M phase at IC50 after 24 hrs by propidium iodide staining-based flow cytometric analysis relative to control; assay type: functional
Ca-Ski [16] = test: Induction of apoptosis in human CaSki cells assessed as caspase-3 activation at 95 to 97 uM after 15 mins by DAPI staining-based epifluorescence microscopic analysis; assay type: functional, cell-based
Ca-Ski [17] = test: Induction of apoptosis in human CaSki cells assessed as chromatin condensation by DAPI staining-based fluorescence microscopic analysis; assay type: functional, cell-based
Ca-Ski [18] = test: (§2) Antiproliferative activity against human CaSki cells after 24 hrs by MTT assay; assay type: functional, cell-based
[19] = as §2; assay type: functional, cell-based; conditions: Ca-Ski
[20] = Cell cycle arrest in human CaSki cells assessed as accumulation at S phase at IC50 after 24 hrs by propidium iodide staining-based flow cytometric analysis relative to control; assay type: functional; conditions: Ca-Ski
[21] = Cell cycle arrest in human ViBo cells assessed as accumulation at sub-G1 phase at IC50 after 24 hrs by propidium iodide staining-based flow cytometric analysis relative to control; assay type: functional
HeLa [22] = test: Cell cycle arrest in human HeLa cells assessed as accumulation at G2/M phase at IC50 after 24 hrs by propidium iodide staining-based flow cytometric analysis relative to control; assay type: functional
Ca-Ski [23] = test: Induction of apoptosis in human CaSki cells assessed as DNA fragmentation at 95 to 97 uM after 24 hrs by TUNEL assay; assay type: functional, cell-based
[24] = Cell cycle arrest in human ViBo cells assessed as accumulation at S phase at IC50 after 24 hrs by propidium iodide staining-based flow cytometric analysis relative to control; assay type: functional
ViBo [25] = test: Induction of apoptosis in human ViBo cells assessed as chromatin condensation by DAPI staining-based fluorescence microscopic analysis; assay type: functional, cell-based
HeLa [26] = test: Cell cycle arrest in human HeLa cells assessed as accumulation at S phase at IC50 after 24 hrs by propidium iodide staining-based flow cytometric analysis relative to control; assay type: functional
ViBo [27] = test: Induction of apoptosis in human ViBo cells assessed as caspase-3 activation at 95 to 97 uM after 15 mins by DAPI staining-based epifluorescence microscopic analysis; assay type: functional, cell-based
[28] = Cell cycle arrest in human CaSki cells assessed as accumulation at sub-G1 phase at IC50 after 24 hrs by propidium iodide staining-based flow cytometric analysis relative to control; assay type: functional; conditions: Ca-Ski
[29] = Cytotoxicity against PHA-activated human lymphocytes at IC50 after 72 hrs by LDH release assay; assay type: cell-based; conditions: lymphocyte
ViBo [30] = test: Induction of apoptosis in human ViBo cells assessed as DNA fragmentation at 95 to 97 uM after 24 hrs by TUNEL assay; assay type: functional, cell-based
[31] = Cell cycle arrest in human CaSki cells assessed as accumulation at G1 phase at IC50 after 24 hrs by propidium iodide staining-based flow cytometric analysis relative to control; assay type: functional; conditions: Ca-Ski
HeLa [32] = test: Induction of apoptosis in human HeLa cells assessed as caspase-3 activation at 95 to 97 uM after 15 mins by DAPI staining-based epifluorescence microscopic analysis; assay type: functional, cell-based
HeLa [33] = test: Antiproliferative activity against human HeLa cells after 24 hrs by MTT assay; assay type: functional, cell-based
HeLa [34] = test: Induction of apoptosis in human HeLa cells assessed as DNA fragmentation at 10 to 18 uM after 24 hrs by TUNEL assay; assay type: functional, cell-based
Ca-Ski [35] = test: Induction of apoptosis in human CaSki cells assessed as DNA fragmentation at 10 to 18 uM after 24 hrs by TUNEL assay; assay type: functional, cell-based
HeLa [36] = test: Induction of apoptosis in human HeLa cells assessed as caspase-3 activation at 10 to 18 uM after 15 mins by DAPI staining-based epifluorescence microscopic analysis; assay type: functional, cell-based
ViBo [37] = test: Induction of apoptosis in human ViBo cells assessed as caspase-3 activation at 10 to 18 uM after 15 mins by DAPI staining-based epifluorescence microscopic analysis; assay type: functional, cell-based
ViBo [38] = test: Induction of apoptosis in human ViBo cells assessed as DNA fragmentation at 10 to 18 uM after 24 hrs by TUNEL assay; assay type: functional, cell-based
Ca-Ski [39] = test: Induction of apoptosis in human CaSki cells assessed as caspase-3 activation at 10 to 18 uM after 15 mins by DAPI staining-based epifluorescence microscopic analysis; assay type: functional, cell-based

For `CC(=O)O[C@H]1CC[C@@]2(C)[C@@H](CC[C@@H]3[C@@H]2CC(=O)[C@]2(C)[C@@H]([C@H](C)C(=O)CC[C@@H](C)C[Se]C#N)[C@@H](OC(C)=O)C[C@@H]32)C1`, the Activity (HeLa [1]) was 4.74%, the IC50 [2] was 97 µM and the Activity (ViBo [3]) was “Dose-dependent effect”. For the same compound, the Activity (PBMC) was 25.28%, the Activity [4] was 59.3% and the Activity (HeLa [5]) was “Active”. For the same compound, the Activity [6] was 16%, the Activity (Ca-Ski [7]) was “Active” and the Activity (HeLa [8]) was 27%. For the same compound, the Activity (HeLa [9]) was 64.04%, the Activity (ViBo [10]) was “Active” and the Activity (HeLa [11]) was “Active”. The Activity [12] was 13.2%, the Activity [13] was 0% and the Activity (HeLa [14]) was “Active”. For the same compound, the Activity [15] was 5.8%, the Activity (Ca-Ski [16]) was “Active” and the Activity (Ca-Ski [17]) was “Active”. For the same compound, the Activity (Ca-Ski [18]) was “Dose-dependent effect”, the IC50 [19] was 97 µM and the Activity [20] was 19.4%. The Activity [21] was 10.8%, the Activity (HeLa [22]) was 10.9% and the Activity (Ca-Ski [23]) was “Active”. For the same compound, the Activity [24] was 16.2%, the Activity (ViBo [25]) was “Active” and the Activity (HeLa [26]) was 18.54%. The Activity (ViBo [27]) was “Active”, the Activity [28] was 8.2% and the Activity [29] was “Non-toxic”. For the same compound, the Activity (ViBo [30]) was “Active”, the Activity [31] was 49.2% and the Activity (HeLa [32]) was “Active”. For the same compound, the Activity (HeLa [33]) was “Dose-dependent effect” and the IC50 (HeLa [33]) was 95 µM.

In the case of `CC(=O)O[C@H]1C(=O)[C@@]2(C)[C@H]([C@H](OC(=O)c3ccccc3)[C@]3(O)C[C@H](OC(=O)[C@H](O)[C@@H](NC(=O)c4ccccc4)c4ccccc4)C(C)=C1C3(C)C)[C@]1(OC(C)=O)CO[C@@H]1C[C@@H]2O` [PACLITAXEL], the IC50 [2] is reported as 1.6 µM and the IC50 [19] is reported as 2.9 µM.

In the case of `CC(=O)O[C@H]1CC[C@@]2(C)C(=CC[C@H]3[C@@H]4C[C@H](OC(C)=O)[C@H]([C@H](C)C(=O)CC[C@@H](C)C[Se]C#N)[C@@]4(C)CC[C@@H]32)C1`, the Activity (HeLa [1]) is reported as 12.6%, the IC50 [2] is reported as 18 µM and the Activity (ViBo [3]) is reported as “Dose-dependent effect”. For the same compound, the Activity (HeLa [34]) was “Active”, the Activity (PBMC) was 51.96% and the Activity [4] was 69.5%. For the same compound, the Activity (Ca-Ski [35]) was “Active”, the Activity (HeLa [5]) was “Active” and the Activity [6] was 45%. The Activity (Ca-Ski [7]) was “Active”, the Activity (HeLa [8]) was 72% and the Activity (HeLa [9]) was 56.19%. For the same compound, the Activity (ViBo [10]) was “Active”, the Activity (HeLa [11]) was “Active” and the Activity [12] was 9.68%. The Activity [13] was 33%, the Activity (HeLa [36]) was “Active” and the Activity [15] was 7.27%. The Activity (Ca-Ski [17]) was “Active”, the Activity (Ca-Ski [18]) was “Dose-dependent effect” and the IC50 [19] was 15 µM. For the same compound, the Activity [20] was 18.9%, the Activity [21] was 8.13% and the Activity (HeLa [22]) was 11.58%. For the same compound, the Activity [24] was 8.67%, the Activity (ViBo [25]) was “Active” and the Activity (HeLa [26]) was 17.04%. The Activity [28] was 41.4%, the Activity [29] was “Non-toxic” and the Activity (ViBo [37]) was “Active”. For the same compound, the Activity [31] was 31.2%, the Activity (ViBo [38]) was “Active” and the Activity (Ca-Ski [39]) was “Active”. For the same compound, the Activity (HeLa [33]) was “Dose-dependent effect” and the IC50 (HeLa [33]) was 10 µM.
